Test results: US9708314B2, “Heterocyclic amide compound” (NISSAN CHEMICAL INDUSTRIES, LTD., priority 2013, dated 2017)

Assays:
Format in all cases: in vivo
[1] = tested on: Echinochloa oryzacola Vasing.; assay: Test Example 2: herbicidal activity, application during weed generation in submerged conditions; settings: Eighteenth Table; application herbicide amount 320 g/ha
Summary of the method: (§1)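 Alluvial soil in Wagner pots flooded to 4 cm water depth; seeds sown mixed, grown in greenhouse at 25–30 °C. At one- to two-leaf stage, emulsion diluted with water to the set rate (g/ha) was applied to the water surface. Effect scored 0–5 by herbicidal ratio three weeks later.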

Monochoria vaginalis = assay: as above; settings: Eighteenth Table; application herbicide amount 320 g/ha
Summary of the method: as §1

Scirpus juncoides = assay: as above; settings: Eighteenth Table; application herbicide amount 320 g/ha
Summary of the method: as §1

Abutilon theophrasti = assay: Test Example 4: herbicidal effect by application to foliage (diluvial soil, plastic box); settings: application to foliage, application herbicide amount 320 g/ha
Summary of the method: (§2)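 Scores run from 0 (herbicidal ratio ≤5%) to 5 (≥90%, almost fully withered) and were assessed three weeks after foliar spraying. Seedlings had been raised for 14 days at 25-30° C in sterilized diluvial soil before treatment, with the emulsion diluted in water to the stated g/ha dose.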

Alopecurus myosuroides = assay: as above; settings: application to foliage, application herbicide amount 320 g/ha
Summary of the method: as §2

Apera spica-venti. = assay: as above; settings: application to foliage, application herbicide amount 320 g/ha
Summary of the method: as §2

Avena fatua = assay: as above; settings: application to foliage, application herbicide amount 320 g/ha
Summary of the method: as §2

Chenopodium album = assay: as above; settings: application to foliage, application herbicide amount 320 g/ha
Summary of the method: as §2

Digitaria ciliaris = assay: as above; settings: application to foliage, application herbicide amount 320 g/ha
Summary of the method: as §2

[2] = tested on: Echinochloa crus-galli var. crus-galli; assay: as above; settings: application to foliage, application herbicide amount 320 g/ha
Summary of the method: as §2

Galium spurium = assay: as above; settings: application to foliage, application herbicide amount 320 g/ha
Summary of the method: as §2

Lolium multiflorum Lam. = assay: as above; settings: application to foliage, application herbicide amount 320 g/ha
Summary of the method: as §2

Setaria viridis = assay: as above; settings: application to foliage, application herbicide amount 320 g/ha
Summary of the method: as §2

Veronica persica = assay: as above; settings: application to foliage, application herbicide amount 320 g/ha
Summary of the method: as §2

[3] = tested on: Beta vulgaris ssp. vulgaris; assay: Test Example 4: effect on crop by application to foliage (diluvial soil, plastic box); settings: application to foliage, application herbicide amount 320 g/ha
Summary of the method: as §2

Brassica campestris L. = assay: as above; settings: application to foliage, application herbicide amount 320 g/ha
Summary of the method: as §2

Glycine max = assay: as above; settings: application to foliage, application herbicide amount 320 g/ha
Summary of the method: as §2

Triticum aestivum = assay: as above; settings: application to foliage, application herbicide amount 320 g/ha
Summary of the method: as §2

Zea mays = assay: as above; settings: application to foliage, application herbicide amount 320 g/ha
Summary of the method: as §2

[4] = tested on: directly sowed Oryza sativa; assay: as above; settings: application to foliage, application herbicide amount 320 g/ha
Summary of the method: as §2

| Structure (SMILES) | A (Echinochloa oryzicola Vasing.) herbicidal ratio grade [1] | C (Monochoria vaginalis) herbicidal ratio grade (Monochoria vaginalis) | B (Scirpus juncoides) herbicidal ratio grade (Scirpus juncoides) | M (Abutilon theophrasti) herbicidal effect (Abutilon theophrasti) | J (Alopecurus myosuroides) herbicidal effect (Alopecurus myosuroides) | L (Apera spica-venti.) herbicidal effect (Apera spica-venti.) | I (Avena fatua) herbicidal effect (Avena fatua) | O (Chenopodium album) herbicidal effect (Chenopodium album) | F (Digitaria ciliaris) herbicidal effect (Digitaria ciliaris) | H (Echinochloa crus-galli var. crus-galli) herbicidal effect [2] | Q (Galium spurium) herbicidal effect (Galium spurium) | K (Lolium multiflorum Lam.) herbicidal effect (Lolium multiflorum Lam.) | G (Setaria viridis) herbicidal effect (Setaria viridis) | R (Veronica persica) herbicidal effect (Veronica persica) | f (Beta vulgaris ssp. vulgaris) effect on crop [3] | g (Brassica campestris L.) effect on crop (Brassica campestris L.) | c (Glycine max) effect on crop (Glycine max) | e (Triticum aestivum) effect on crop (Triticum aestivum) | b (Zea mays) effect on crop (Zea mays) | d (directly sowed Oryza sativa) effect on crop [4] |
| --- | --- | --- | --- | --- | --- | --- | --- | --- | --- | --- | --- | --- | --- | --- | --- | --- | --- | --- | --- | --- |
| COc1ccccc1-c1nnc2c(C(=O)Nc3nnc(C)o3)ccc(C(F)(F)F)n12 [1-047] | 3 (Herbicidal ratio of 40% or more and less than 70%) | 3 (Herbicidal ratio of 40% or more and less than 70%) | 2 (Herbicidal ratio of 20% or more and less than 40%) | 5 (Herbicidal ratio of 90% or more (almost completely withered)) | 0 (Herbicidal ratio of 5% or less (almost no effect)) | 1 (Herbicidal ratio of 5% or more and less than 20%) | 1 (Herbicidal ratio of 5% or more and less than 20%) | 5 (Herbicidal ratio of 90% or more (almost completely withered)) | 4 (Herbicidal ratio of 70% or more and less than 90%) | 5 (Herbicidal ratio of 90% or more (almost completely withered)) | 2 (Herbicidal ratio of 20% or more and less than 40%) | 0 (Herbicidal ratio of 5% or less (almost no effect)) | 4 (Herbicidal ratio of 70% or more and less than 90%) | 4 (Herbicidal ratio of 70% or more and less than 90%) | 5 (Herbicidal ratio of 90% or more (almost completely withered)) | 4 (Herbicidal ratio of 70% or more and less than 90%) | 1 (Herbicidal ratio of 5% or more and less than 20%) | 0 (Herbicidal ratio of 5% or less (almost no effect)) | 0 (Herbicidal ratio of 5% or less (almost no effect)) | 3 (Herbicidal ratio of 40% or more and less than 70%) |
| CSc1nnc2c(C(=O)Nc3nnc(C)o3)ccc(C(F)(F)F)n12 [1-018, N-(5-Methyl-1,3,4-oxadiazol-2-yl)-3-(methylthio)-5-(trifluoromethyl)-[1,2,4]triazol o[4,3-a]pyridine-8-carboxamide] | 0 (Herbicidal ratio of 5% or less (almost no effect)) | 0 (Herbicidal ratio of 5% or less (almost no effect)) | 2 (Herbicidal ratio of 20% or more and less than 40%) | 3 (Herbicidal ratio of 40% or more and less than 70%) | 0 (Herbicidal ratio of 5% or less (almost no effect)) | 0 (Herbicidal ratio of 5% or less (almost no effect)) | 0 (Herbicidal ratio of 5% or less (almost no effect)) | 5 (Herbicidal ratio of 90% or more (almost completely withered)) | 0 (Herbicidal ratio of 5% or less (almost no effect)) | 1 (Herbicidal ratio of 5% or more and less than 20%) | 0 (Herbicidal ratio of 5% or less (almost no effect)) | 0 (Herbicidal ratio of 5% or less (almost no effect)) | 2 (Herbicidal ratio of 20% or more and less than 40%) | 4 (Herbicidal ratio of 70% or more and less than 90%) | 1 (Herbicidal ratio of 5% or more and less than 20%) | 0 (Herbicidal ratio of 5% or less (almost no effect)) | 0 (Herbicidal ratio of 5% or less (almost no effect)) | 0 (Herbicidal ratio of 5% or less (almost no effect)) | 0 (Herbicidal ratio of 5% or less (almost no effect)) | 0 (Herbicidal ratio of 5% or less (almost no effect)) |
| Cc1nnc(NC(=O)c2ccc(C(F)(F)F)n3c(CC(=O)O)nnc23)o1 [1-048] | 0 (Herbicidal ratio of 5% or less (almost no effect)) | 0 (Herbicidal ratio of 5% or less (almost no effect)) | 1 (Herbicidal ratio of 5% or more and less than 20%) | 5 (Herbicidal ratio of 90% or more (almost completely withered)) | 1 (Herbicidal ratio of 5% or more and less than 20%) | 2 (Herbicidal ratio of 20% or more and less than 40%) | 2 (Herbicidal ratio of 20% or more and less than 40%) | 5 (Herbicidal ratio of 90% or more (almost completely withered)) | 5 (Herbicidal ratio of 90% or more (almost completely withered)) | 5 (Herbicidal ratio of 90% or more (almost completely withered)) | 3 (Herbicidal ratio of 40% or more and less than 70%) | 1 (Herbicidal ratio of 5% or more and less than 20%) | 3 (Herbicidal ratio of 40% or more and less than 70%) | 4 (Herbicidal ratio of 70% or more and less than 90%) | 5 (Herbicidal ratio of 90% or more (almost completely withered)) | 4 (Herbicidal ratio of 70% or more and less than 90%) | 0 (Herbicidal ratio of 5% or less (almost no effect)) | 1 (Herbicidal ratio of 5% or more and less than 20%) | 0 (Herbicidal ratio of 5% or less (almost no effect)) | 4 (Herbicidal ratio of 70% or more and less than 90%) |
| Cc1nnc(NC(=O)c2ccc(C(F)(F)F)n3c(CSCC(F)(F)F)nnc23)o1 [1-031] | 3 (Herbicidal ratio of 40% or more and less than 70%) | 2 (Herbicidal ratio of 20% or more and less than 40%) | 2 (Herbicidal ratio of 20% or more and less than 40%) | 5 (Herbicidal ratio of 90% or more (almost completely withered)) | 1 (Herbicidal ratio of 5% or more and less than 20%) | 1 (Herbicidal ratio of 5% or more and less than 20%) | 2 (Herbicidal ratio of 20% or more and less than 40%) | 5 (Herbicidal ratio of 90% or more (almost completely withered)) | 4 (Herbicidal ratio of 70% or more and less than 90%) | 5 (Herbicidal ratio of 90% or more (almost completely withered)) | 3 (Herbicidal ratio of 40% or more and less than 70%) | 1 (Herbicidal ratio of 5% or more and less than 20%) | 4 (Herbicidal ratio of 70% or more and less than 90%) | 4 (Herbicidal ratio of 70% or more and less than 90%) | 3 (Herbicidal ratio of 40% or more and less than 70%) | 3 (Herbicidal ratio of 40% or more and less than 70%) | 1 (Herbicidal ratio of 5% or more and less than 20%) | 1 (Herbicidal ratio of 5% or more and less than 20%) | 0 (Herbicidal ratio of 5% or less (almost no effect)) | 3 (Herbicidal ratio of 40% or more and less than 70%) |
